US9156790B2, “Anticancer P21-activated kinase inhibitors” (Ohio State Innovation Foundation, priority 2013, dated 2015)
Read-outs that look alike come from different tables or passages of the source.

Legend:
ROCK-II = ROCK-II (Homo sapiens, UniProt O75116); assay: Kinase profiling panel: ROCK-II; type: biochemical; conditions: 5 μM compound; average of triplicate
Method: (§1) To further probe the selectivity of the compounds 4 and 15, they were subjected for kinase profiling service for screening against a panel of other kinases selected based on the kinase tree at 5 μM concentration, at or above the IC50 for the two compounds versus PAK in both in vitro and cell-based assays. […] PAK1 was not available for testing using this system thus it was not possible to compare directly in this assay system.

[1] = tested on: BCPAP cells transfected with constitutively activated PAK1 cDNA; assay: Migration rescue experiment with constitutively activated PAK1; type: cell-based, Human; conditions: 1 μM compound, 24 hours, P<0.05
Method: Myc-tagged constitutively activated (CA) PAK1 cDNAs was the generous gift of Dr. Jonathan Chernoff (Fox Chase Cancer Center, Philadelphia, Pa.). Sells et al., J Cell Biol 145:837-849 (1999). pRC/CMV and pcDNA3.1(+) vector were purchased from Life Technologies. BCPAP cells were grown in RPMI containing 10% FBS until 40-50% confluent. They were transfected with CAPAK1 cDNA or a vector control, washed with PBS, trypsinized with 0.05% Trypsin-EDTA 1× (Gibco) for 5-10 min, collected with 10% FBS RPMI, and centrifuged at 300 g for 5 min. Cells were resuspended with 0% FBS RPMI and counted using Countess™ (Invitrogen). Then a volume of 1×10^5 cells suspended in 300 μl of 0% FBS RPMI was placed into Boyden chamber inserts (8 μm pore). The inserts were placed into wells of a 24 well plate filled with 400 μl of 0% FBS RPMI. The plate was incubated at 37° C. 5% CO2 for 1 hour. Then 30 μl (1 μM) of either compound 4 or 15 was added to the inserts and then incubated again for 1 hour. The inserts were transferred into different wells filled with 400 μl of 10% FBS RPMI. After incubation for 24 hours, the cells on either side of the insert membrane were fixed and quantified as above. Experiments were performed in triplicate on three occasions.
Because the compounds are multikinase inhibitors, we next sought to determine if PAK1 inhibition was responsible for some of the biological effects of the compounds. […]

CDK5/p25 = CDK5/p25 (Homo sapiens, UniProt Q00535); assay: Kinase profiling panel: CDK5/p25; type: biochemical; conditions: 5 μM compound; average of triplicate
Method: as §1

ERK phosphorylation = assay: Western blot, ERK phosphorylation in thyroid cancer cells; type: cell-based, Human; conditions: 6 hours
Method: (§2) Protein isolation and Western blot were performed as previously described. Ringel et al., Cancer research 61:6105-6111 (2001). 25 μg of total cell lysates were loaded into 4-12% SDS-PAGE, electrophoresed, and transferred to nitrocellulose membranes for immunoblotting. Primary antibodies against Akt (#9272), phospho-Akt (Thr308) (#2965), p44/42 MAPK (Erk1/2) (#9107), phospho-p44/42 MAPK (Erk1/2) (Thr202/Tyr204) (#4377) and GAPDH (#2118) were obtained from Cell Signaling Technology (Danvers, Mass., USA). Antibody against Vimentin (V6630) and phospho-Ser55 Vimentin were from Sigma-Aldrich, Inc. (St. Louis, Mo.) and MBL Co. (Nagoya, Japan), respectively. Antibodies against total and phosphorylated S6 were from Cell Signaling Technology®.
(§3) The dose-dependency of compounds 4 and 15 was next assessed (FIG. 4). […] Due to the important role that ERK activation plays in thyroid cancer, and its signaling activation by thyroid oncogenes, the effects of the compounds on ERK phosphorylation was also assessed.

PAK2 = PAK2 (Homo sapiens, UniProt Q13177); assay: Kinase profiling panel: PAK2; type: biochemical; conditions: 5 μM compound; average of triplicate
Method: as §1

Ret = Ret (Homo sapiens, UniProt P07949); assay: Kinase profiling panel: Ret; type: biochemical; conditions: 5 μM compound; average of triplicate
Method: as §1

[2] = tested on: PAK phosphorylation of Vimentin (Ser56); assay: Western blot, PAK phosphorylation of Vimentin (Ser56) in thyroid cancer cells; type: cell-based, Human; conditions: for PAK phosphorylation of vimentin (Western blot): 7.5 μM, 6 h, FTC133 and TPC1 cells (FIG. 3); for PAK phosphorylation of vimentin (Western blot) / Dose-dependency of PAK inhibition (Vimentin phosphorylation): BCPAP; for IC50: Homo sapiens, cell-based assays, read-out: IC50 versus PAK, cell-based; for Dose-dependency of PAK inhibition (Vimentin phosphorylation): dose-response, 6 hours, FTC133 and TPC1 cells (FIG. 4A)
Method: as §2
The ability of the compounds with in vitro anti-PAK1 activity was assessed for activity […] in thyroid cancer cells. In addition, because the compounds are based on the structure of a PDK1 inhibitor, PDK1 inhibitory activity was also assessed. Inhibitory activity in cells was estimated using Western blot with primary antibodies directed against kinase-specific phosphorylation sites; serine 56 of vimentin for PAK and threonine 308 of Akt for PDK1. BCPAP, TPC1, and FTC133 thyroid cancer cells were utilized. BCPAP and TPC1 are derived from PTC and have BRAF V600E and RET/PTC1 rearrangements, respectively. FTC133 is derived from a follicular thyroid cancer with an inactivating mutation of PTEN. Similar to the kinase screening assay, cells were treated with the six compounds or OSU-03012 at 7.5 μM concentration or with DMSO vehicle alone. The results were not entirely consistent across the three cell lines presumably related to mutation status or other factors. OSU-03012 inhibited both PDK1 and PAK-mediated phosphorylation of targets as predicted.
as §3

ROCK-I = ROCK-I (Homo sapiens, UniProt Q13464); assay: Kinase profiling panel: ROCK-I; type: biochemical; conditions: 5 μM compound; average of triplicate
Method: as §1

PKBα = PKBα (Homo sapiens, UniProt P31749); assay: Kinase profiling panel: PKBα; type: biochemical; conditions: read-out: % activity vs. DMSO, PKBα
Method: as §1

Chain of ROCK-II (O75116 whole entry, species assumed): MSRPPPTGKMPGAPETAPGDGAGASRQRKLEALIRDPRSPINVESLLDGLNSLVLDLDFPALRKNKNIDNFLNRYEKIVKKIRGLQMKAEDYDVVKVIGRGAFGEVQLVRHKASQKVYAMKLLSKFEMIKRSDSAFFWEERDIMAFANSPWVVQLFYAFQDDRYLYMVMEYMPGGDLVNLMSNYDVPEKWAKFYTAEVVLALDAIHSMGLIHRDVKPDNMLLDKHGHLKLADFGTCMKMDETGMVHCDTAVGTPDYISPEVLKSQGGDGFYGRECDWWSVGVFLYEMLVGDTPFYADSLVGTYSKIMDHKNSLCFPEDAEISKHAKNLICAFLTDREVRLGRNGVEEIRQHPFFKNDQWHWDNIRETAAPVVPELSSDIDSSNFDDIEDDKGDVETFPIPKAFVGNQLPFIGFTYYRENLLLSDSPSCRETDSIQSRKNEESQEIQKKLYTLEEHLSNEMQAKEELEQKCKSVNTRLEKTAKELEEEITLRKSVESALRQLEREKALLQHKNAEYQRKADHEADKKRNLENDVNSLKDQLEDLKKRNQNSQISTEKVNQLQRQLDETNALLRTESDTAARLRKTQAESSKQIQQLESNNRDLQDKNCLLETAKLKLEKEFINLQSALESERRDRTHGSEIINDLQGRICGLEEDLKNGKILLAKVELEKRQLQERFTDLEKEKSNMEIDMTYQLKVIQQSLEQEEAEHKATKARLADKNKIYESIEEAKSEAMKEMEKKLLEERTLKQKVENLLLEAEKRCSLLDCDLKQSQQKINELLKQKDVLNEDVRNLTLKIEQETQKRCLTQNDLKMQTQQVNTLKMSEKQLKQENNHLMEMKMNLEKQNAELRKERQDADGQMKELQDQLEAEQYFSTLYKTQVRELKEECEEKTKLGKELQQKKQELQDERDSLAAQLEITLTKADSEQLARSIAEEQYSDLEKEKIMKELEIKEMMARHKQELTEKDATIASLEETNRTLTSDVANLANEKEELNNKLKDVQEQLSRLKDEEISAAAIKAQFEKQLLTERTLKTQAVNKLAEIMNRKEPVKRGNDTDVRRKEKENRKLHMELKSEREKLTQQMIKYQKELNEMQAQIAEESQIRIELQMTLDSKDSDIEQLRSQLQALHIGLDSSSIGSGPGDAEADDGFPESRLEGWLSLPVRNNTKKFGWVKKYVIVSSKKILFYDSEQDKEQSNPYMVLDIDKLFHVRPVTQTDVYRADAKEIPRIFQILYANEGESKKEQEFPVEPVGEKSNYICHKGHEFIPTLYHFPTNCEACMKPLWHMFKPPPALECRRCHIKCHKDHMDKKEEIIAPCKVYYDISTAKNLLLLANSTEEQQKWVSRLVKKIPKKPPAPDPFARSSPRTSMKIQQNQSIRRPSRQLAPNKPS
Chain of CDK5/p25 (Q00535 whole entry, species assumed): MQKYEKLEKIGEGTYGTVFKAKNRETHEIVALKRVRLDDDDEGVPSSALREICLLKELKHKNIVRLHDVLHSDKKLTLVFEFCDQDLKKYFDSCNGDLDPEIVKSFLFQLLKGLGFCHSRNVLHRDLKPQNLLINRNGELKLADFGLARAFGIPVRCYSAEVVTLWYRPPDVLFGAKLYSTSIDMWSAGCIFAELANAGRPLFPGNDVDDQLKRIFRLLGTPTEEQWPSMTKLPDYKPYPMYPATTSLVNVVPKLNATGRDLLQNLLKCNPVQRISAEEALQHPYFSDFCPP
Chain of CDK5/p25 (Q15078 99-307 partner limits assumed, species assumed): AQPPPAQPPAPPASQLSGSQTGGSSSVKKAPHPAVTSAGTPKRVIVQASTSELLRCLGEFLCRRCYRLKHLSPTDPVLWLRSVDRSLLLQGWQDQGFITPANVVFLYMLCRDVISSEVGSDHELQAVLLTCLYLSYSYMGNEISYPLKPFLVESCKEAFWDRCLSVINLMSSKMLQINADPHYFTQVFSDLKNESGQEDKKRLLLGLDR
Chain of Ret (P07949 29-1114, species assumed): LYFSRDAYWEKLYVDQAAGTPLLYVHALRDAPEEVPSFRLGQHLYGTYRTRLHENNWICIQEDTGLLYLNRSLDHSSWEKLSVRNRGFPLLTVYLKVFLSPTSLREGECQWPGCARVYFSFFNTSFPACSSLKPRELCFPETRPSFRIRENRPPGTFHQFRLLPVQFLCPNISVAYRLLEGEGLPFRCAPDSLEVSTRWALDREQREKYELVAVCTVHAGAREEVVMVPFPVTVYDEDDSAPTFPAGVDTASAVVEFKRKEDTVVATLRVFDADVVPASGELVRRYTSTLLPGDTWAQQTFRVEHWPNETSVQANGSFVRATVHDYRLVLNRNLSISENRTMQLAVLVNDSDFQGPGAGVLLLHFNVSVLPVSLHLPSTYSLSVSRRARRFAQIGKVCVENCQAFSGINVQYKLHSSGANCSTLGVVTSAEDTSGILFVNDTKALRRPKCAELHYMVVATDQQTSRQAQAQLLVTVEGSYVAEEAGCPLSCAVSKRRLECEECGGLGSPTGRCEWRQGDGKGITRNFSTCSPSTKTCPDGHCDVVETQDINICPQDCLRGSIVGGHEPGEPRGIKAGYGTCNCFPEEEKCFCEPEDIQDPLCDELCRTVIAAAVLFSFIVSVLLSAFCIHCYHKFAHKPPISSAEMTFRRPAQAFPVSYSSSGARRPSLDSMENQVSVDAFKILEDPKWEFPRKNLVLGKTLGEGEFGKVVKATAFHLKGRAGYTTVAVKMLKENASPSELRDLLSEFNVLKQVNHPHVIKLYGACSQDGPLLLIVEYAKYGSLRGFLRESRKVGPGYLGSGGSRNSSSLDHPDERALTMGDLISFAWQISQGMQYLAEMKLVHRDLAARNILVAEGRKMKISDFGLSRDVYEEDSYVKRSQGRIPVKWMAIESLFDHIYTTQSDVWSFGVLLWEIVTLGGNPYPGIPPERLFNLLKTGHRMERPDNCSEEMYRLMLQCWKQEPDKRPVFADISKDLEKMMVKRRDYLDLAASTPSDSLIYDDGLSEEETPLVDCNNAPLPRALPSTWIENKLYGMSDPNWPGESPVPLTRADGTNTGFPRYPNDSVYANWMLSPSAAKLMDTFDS
Chain of PKBα (P31749 whole entry, species assumed): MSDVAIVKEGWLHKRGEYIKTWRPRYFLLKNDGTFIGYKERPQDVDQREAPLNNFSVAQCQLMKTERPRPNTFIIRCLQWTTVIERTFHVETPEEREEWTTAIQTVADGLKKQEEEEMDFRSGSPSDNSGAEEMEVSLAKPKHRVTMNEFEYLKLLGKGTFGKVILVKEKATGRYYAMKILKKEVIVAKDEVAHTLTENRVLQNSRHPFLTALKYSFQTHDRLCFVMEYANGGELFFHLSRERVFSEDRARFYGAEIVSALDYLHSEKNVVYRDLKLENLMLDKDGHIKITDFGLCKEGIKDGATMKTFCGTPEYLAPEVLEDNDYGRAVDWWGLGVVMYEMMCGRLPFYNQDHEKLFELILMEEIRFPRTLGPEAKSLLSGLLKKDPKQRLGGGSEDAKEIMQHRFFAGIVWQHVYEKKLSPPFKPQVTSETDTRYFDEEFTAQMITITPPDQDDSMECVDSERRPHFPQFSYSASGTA
Chain of ROCK-I (Q13464 whole entry, species assumed): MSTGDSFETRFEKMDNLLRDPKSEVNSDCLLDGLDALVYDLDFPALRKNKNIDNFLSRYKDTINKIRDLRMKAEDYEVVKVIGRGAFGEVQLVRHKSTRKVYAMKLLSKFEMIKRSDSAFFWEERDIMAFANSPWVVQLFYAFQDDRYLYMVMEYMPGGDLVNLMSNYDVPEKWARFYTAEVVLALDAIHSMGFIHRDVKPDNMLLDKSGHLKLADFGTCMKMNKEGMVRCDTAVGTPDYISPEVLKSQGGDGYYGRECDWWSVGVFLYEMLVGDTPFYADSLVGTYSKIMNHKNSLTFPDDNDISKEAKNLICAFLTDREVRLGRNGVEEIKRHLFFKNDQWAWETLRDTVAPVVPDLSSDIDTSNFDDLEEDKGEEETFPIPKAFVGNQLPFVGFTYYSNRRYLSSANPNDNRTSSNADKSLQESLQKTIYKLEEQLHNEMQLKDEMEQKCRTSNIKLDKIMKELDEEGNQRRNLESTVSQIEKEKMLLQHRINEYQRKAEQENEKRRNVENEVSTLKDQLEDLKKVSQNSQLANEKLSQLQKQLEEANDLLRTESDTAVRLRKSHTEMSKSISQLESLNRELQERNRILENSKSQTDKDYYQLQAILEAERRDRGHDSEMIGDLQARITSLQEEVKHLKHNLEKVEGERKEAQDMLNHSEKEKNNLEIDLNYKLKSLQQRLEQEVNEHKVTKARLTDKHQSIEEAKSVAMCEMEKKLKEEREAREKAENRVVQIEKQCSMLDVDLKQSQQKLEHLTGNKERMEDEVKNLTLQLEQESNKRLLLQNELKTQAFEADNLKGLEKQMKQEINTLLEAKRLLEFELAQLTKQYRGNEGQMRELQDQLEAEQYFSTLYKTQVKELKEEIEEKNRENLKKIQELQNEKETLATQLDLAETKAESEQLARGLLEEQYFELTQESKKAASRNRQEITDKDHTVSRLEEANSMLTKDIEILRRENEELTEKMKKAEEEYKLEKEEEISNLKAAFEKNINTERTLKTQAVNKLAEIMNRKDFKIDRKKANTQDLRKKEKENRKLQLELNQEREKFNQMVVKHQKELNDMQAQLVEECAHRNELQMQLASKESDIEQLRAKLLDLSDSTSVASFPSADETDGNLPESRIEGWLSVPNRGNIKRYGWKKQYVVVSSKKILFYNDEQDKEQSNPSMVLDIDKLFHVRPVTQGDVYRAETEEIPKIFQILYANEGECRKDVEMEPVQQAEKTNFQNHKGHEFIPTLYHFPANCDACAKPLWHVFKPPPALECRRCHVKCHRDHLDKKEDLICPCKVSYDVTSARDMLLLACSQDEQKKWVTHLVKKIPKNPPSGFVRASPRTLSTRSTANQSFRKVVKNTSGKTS

| Structure (SMILES) | % activity vs. DMSO, ROCK-II (ROCK-II) [%] | Rescue of anti-migratory effect by constitutively activated PAK1 [1] | % activity vs. DMSO, CDK5/p25 (CDK5/p25) [%] | ERK phosphorylation, all three cell lines (ERK phosphorylation; dose-response, BCPAP, FTC133 and TPC1 cells) | % activity vs. DMSO, PAK2 (PAK2) [%] | % activity vs. DMSO, Ret (Ret) [%] | PAK phosphorylation of vimentin (Western blot) [2] | IC50 [2] [µM] | Dose-dependency of PAK inhibition (Vimentin phosphorylation) [2] | % activity vs. DMSO, ROCK-I (ROCK-I) [%] | remaining activity at 5 µM (PKBα; 5 μM compound, average of triplicate) [%] | ERK phosphorylation, BCPAP cells (ERK phosphorylation; 2.5 μM, BCPAP cells (BRAF V600E)) | ERK phosphorylation, other two cell lines (ERK phosphorylation; FTC133 and TPC1 cells) | remaining activity at 5 µM (PKBα) [%] |
| --- | --- | --- | --- | --- | --- | --- | --- | --- | --- | --- | --- | --- | --- | --- |
| NCCC(=O)Nc1ccc(-n2nc(C(F)(F)F)cc2-c2ccc3ccc4ccccc4c3c2)cc1 [Compound 4, 3-amino-N-(4-(5-(phenanthren-3-yl)-3-(trifluoromethyl)-1H-pyrazol-1-yl)phenyl)-propanamide] | 79 | rescued | 113 | no demonstrable effects on ERK phosphorylation | 70 | 97 | inhibited PAK | ≤ 5 | inhibited PAK1 in a dose dependent manner | 93 | 103 | – | – | – |
| CC(C)NC(=O)c1cc(-c2ccc3ccc4ccccc4c3c2)n(-c2ccc(NC(=O)CN)cc2)n1 [Compound 15, 1-(4-(2-Aminoacetamido)phenyl)-N-isopropyl-5-(phenanthren-3-yl)-1H-pyrazole-3-carboxamide] | 96 | rescued | 93 | – | 81 | 76 | inhibited PAK | ≤ 5 | inhibited PAK1 in a dose dependent manner | 95 | – | inhibited ERK phosphorylation | at higher concentrations | 99 |
